Measured values as given in patent US8143254B2, “Methods for modulating ion channels” (Cornell Research Foundation, Inc., priority 2005, dated 2012).
Like-named read-outs stand apart in the source and are kept apart here.

Target: T1, Kv2.1 (Rattus norvegicus, UniProt P15387)
T1 construct: expressed in transfected cells; host or cells: Xenopus laevis oocytes (cRNA injection, pGA1 vector)
Assay: Two-electrode voltage clamp (TEVC) of Xenopus oocytes expressing Kv2.1, bath-applied compound
Type: cell-based
Conditions: for effect on Kv2.1 currents: 1 mM, bath applied; for slope of dose response curve: Kv2.1, Example 8; for relative sensitivity of Kv2.1 and Kv3.4: Kv2.1 versus Kv3.4; for mean inhibition at 0 mV relative to +60 mV: Kv2.1, voltage dependence of block
From the text: The ion channel subunit genes are in expression vectors that facilitate in vitro transcription of channel cRNA using the Ambion mMessage mMachine in vitro transcription kit. cDNA constructs are column-purified, linearized with the appropriate restriction enzyme that cuts a single site following the polyA tail, then purified by precipitation and transcribed in vitro using a promoter, such as T7, T3 and SP6. Transcribed cRNA is purified by precipitation and resuspended in RNAse-free water ready for injection. Each transcription can provide enough cRNA for several months of experiments.
Stage V-VI Xenopus oocytes are separated into small groups using forceps, defolliculated by agitation in Ca^2+-free Ringer solution containing collagenase for one hour, washed, then stored at 15° C. in full Ringers solution before injection. cRNA sufficient to give 1-10 μA of current at physiological voltages for each channel type is injected into Xenopus oocytes (selected by appearance for overall health and uniformity of color) using a Sutter manual injector (typically 0.1-5 ng cRNA in a volume of 25-50 nl). The oocytes are then stored for 1-3 days at 15° C. before TEVC recording. Beta subunit cRNA is co-injected as appropriate, typically 2 ng per oocyte.
Whole cell oocyte experiments are performed using a Warner OC-725C amplifier and pClamp9 software with oocytes bathed in a small-volume Warner oocyte bath and viewed with a Fisher dissection microscope. Bath solution for whole cell oocyte recordings, e.g., for potassium channel analysis, is generally (in mM): 96 NaCl, 4 KCl, 1 MgCl2, 0.3 CaCl2, 10 HEPES (Ph 7.4); whole-cell oocyte TEVC pipettes are filled with 3 M KCl. Oocyte patches are studies using an Axon Instruments small-volume bath, viewed with an Olympus IX50 inverted microscope, and recordings made using an Axon Multiclamp 700 A Amplifier and pCLAMP9 software (Axon Instruments). Extracellular solution, e.g., for potassium channel analysis, is generally (in mM): 135 NaCl, 5 KCl, 1.2 MgCl2, 5 HEPES, 2.5 CaCl2, 10 D-glucose (Ph 7.4). Intracellular solution, e.g., for potassium channel analysis, is generally (in mM): 10 NaCl, 117 KCl, 2 MgCl2, 11 HEPES, 11 EGTA, ICaCl2 (Ph 7.2). Patch pipettes are approximately 3-5 MΩ resistance when filled with recording solution.
Quantitative aspects of ion action on ion channels are compared using standard pulse protocols. Pulse times and voltages will vary according to which currents are being studied. […] Drug inhibition constants are calculated after generating a dose response curve by fitting with a logistic dose-response function (see equation (i) below). Typically, 5-20 cells per group are recorded from for heterologous expression experiments. Values are to be stated as mean±SEM with statistical significance set at p<0.05 (unpaired students t-test, ANOVA or the Mann-Whitney Rank Sum Test as appropriate).
Injected oocytes, bathed in bath solution containing 4 mM KCl, unless otherwise stated, are impaled with current and voltage electrodes and clamped at −80 mV holding potential using a Warner OC-725C amplifier. […] Drug concentrations are chosen to ensure inhibition values between 0 and 90-100% with at least 3 values within the linear portion of the curve so that the inhibition constant (Ki) can be calculated accurately by fitting with a logistic dose-response function (formula (i)) using the Origin 6.1 graph package.
Kv2.1 mutants were constructed using the QuickChange Multi Site-Directed Mutagenesis Kit (Stratagene, La Jolla, Calif.). […] For oocyte expression, Kv3.4 was in pBF1, Kv4.2 was in pRAT. cRNA transcripts were produced from SacII-linearized (Kv2.1), Mlullinearized (Kv3.4) and Not1-linearized (Kv4.2) DNA templates using the T3 (Kv2.1), SP6 (Kv3.4) and T7 (Kv4.2) mMessage mMachine kits (Ambion, Austin, Tex.). cRNA was quantified by spectrophotometry and its size integrity verified by gel electophoresis.

[1] = IC50, Kv2.1, logistic dose response fit, Example 8

T1 sequence (P15387 whole entry): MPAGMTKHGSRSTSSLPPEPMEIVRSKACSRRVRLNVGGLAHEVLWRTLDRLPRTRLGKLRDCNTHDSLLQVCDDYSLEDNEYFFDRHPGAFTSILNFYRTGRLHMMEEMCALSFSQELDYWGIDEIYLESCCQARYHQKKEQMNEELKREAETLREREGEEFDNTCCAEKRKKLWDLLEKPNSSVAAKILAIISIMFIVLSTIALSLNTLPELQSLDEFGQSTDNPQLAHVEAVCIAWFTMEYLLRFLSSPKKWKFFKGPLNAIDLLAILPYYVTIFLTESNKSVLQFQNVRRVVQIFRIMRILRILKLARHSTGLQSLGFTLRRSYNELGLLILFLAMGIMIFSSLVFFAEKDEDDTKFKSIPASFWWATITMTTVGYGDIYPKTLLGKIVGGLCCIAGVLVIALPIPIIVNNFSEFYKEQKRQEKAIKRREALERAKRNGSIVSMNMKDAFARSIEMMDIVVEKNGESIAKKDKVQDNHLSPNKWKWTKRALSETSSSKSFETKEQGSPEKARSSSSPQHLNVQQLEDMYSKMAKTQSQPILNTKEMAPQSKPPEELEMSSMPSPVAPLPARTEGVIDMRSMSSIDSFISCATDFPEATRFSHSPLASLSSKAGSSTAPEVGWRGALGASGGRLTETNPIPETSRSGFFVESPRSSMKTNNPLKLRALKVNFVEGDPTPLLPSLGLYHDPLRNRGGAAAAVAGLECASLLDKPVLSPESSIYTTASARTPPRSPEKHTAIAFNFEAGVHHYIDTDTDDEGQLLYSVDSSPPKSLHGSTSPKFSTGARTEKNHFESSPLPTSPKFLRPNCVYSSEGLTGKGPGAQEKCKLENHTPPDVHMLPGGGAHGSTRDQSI

SMILES	effect on Kv2.1 currents	slope of dose response curve	relative sensitivity of Kv2.1 and Kv3.4	mean inhibition at 0 mV relative to +60 mV [fold]	p (Hill slope) of logistic dose-response fit (Kv2.1 alone, Example 4)	IC50 [1] [µM]	also measured
c1cc(C[N+]23CCN(CC2)CC3)ccc1C[N+]12CCN(CC1)CC2 [JC638.2α, α,α′-[bis(4-aza-1-azoniabicyclo[2.2.2]octanyl)]p-xylene]	significant inhibition	1.4±0.1	significantly differentiate between Kv2.1 and Kv3.4	–	–	–	IC50 (Kv2.1, logistic dose response fit, Example 8, read-out: IC50): 186 ± 17 µM; voltage dependence of block (inhibition attenuated at more positive voltages): voltage dependent block
CCCCCCCCCCCC[N+]12CCN(CC1)CC2 [JE188, 1-aza-4-azonia-4-dodecylbicyclo[2.2.2]octane]	–	1.4±0.1	–	3	1.4±0.1	–	inhibition of Kv2.1 (50 μM): significantly inhibited; inhibition of Kv2.1 (250 μM): almost complete inhibition; IC50 (Kv2.1 alone, external bath application, Example 4, read-out: x0 of logistic dose-response fit of current inhibition (converted)): 23.3 ± 2.1 µM; sensitivity of Kv2.1 currents to compound relative to tetraethylammonium (externally applied): 500 fold
CCCCCCCCCCCCCCCC[N+]12CCN(CC1)CC2 [TA279, 1-aza-4-azonia-4-hexadecylbicyclo[2.2.2]octane]	–	0.6±0.4	–	3	0.8±0.1	1.9 ± 3.6	sensitivity of Kv2.1 currents to TA279 relative to JE188: 20 fold; inhibition of Kv2.1 (1 μM): inhibiting; inhibition of Kv2.1 (5 mM): almost complete inhibition; time for washout (compared with TEA): several minutes; IC50 (x0 of logistic dose-response fit of current inhibition, Kv2.1 alone, external bath application, Example 4): 1 ± 0.8 µM
C(CC[N+]12CCN(CC1)CC2)C[N+]12CCN(CC1)CC2 [TG26]	less effective than TG27	–	Kv2.1 was more sensitive than Kv3.4	–	–	–	–
C(CCCC[N+]12CCN(CC1)CC2)CCC[N+]12CCN(CC1)CC2 [TG27, 1,8-[bis(4-aza-1-azoniabicyclo[2.2.2]octanyl)]octane]	–	2.1±0.8	Kv2.1 was more sensitive than Kv3.4	–	–	270 ± 66.4	–
